The record followed here is PMC7094215, “Synthesis and Evaluation of Antileishmanial and Cytotoxic Activity of Benzothiopyrane Derivatives” (Molecules, 2020).

Where two headings read alike, the source gives them in different places. Some results are limits rather than exact numbers.

Series [1] has as its system intracellular amastigotes of L. panamensis (MHOM/CO/87/UA140-EGFP strain). The series is described as follows: In vitro antileishmanial activity on intracellular amastigotes (GFP, flow cytometry). Format: cell-based, Leishmania (V) panamensis. As to conditions: for SI (Selectivity Index = LC50/EC50): LC50 U-937 / EC50 L. panamensis amastigotes; for EC50: intracellular amastigotes in U-937 cells, 72 h exposure, mean ± SD, Probit. How it is done:
Antileishmanial activity of compounds was determined according to the ability of the compound to reduce the infection by L. panamensis parasites. For this, the antileishmanial activity was tested on intracellular amastigotes of L. panamensis transfected with the green fluorescent protein gene (MHOM/CO/87/UA140-EGFP strain). Briefly, U-937 human cells at a density of 3 × 10^5 cells/mL in RPMI 1640 and 0.1 μg/mL of PMA (phorbol-12-myristate-13-acetate) were dispensed on 24-wells microplate and then infected with stationary phase growing L. panamensis promastigotes in 15:1 parasites per cell ratio. Plates were incubated at 34 °C and 5% CO2 for 3 h, and then cells were washed twice with phosphate buffer solution (PBS) to eliminate not internalized parasites. Fresh RPMI-1640 was added into each well (1 mL), and plates were incubated again. After 24 h of infection, the RPMI-1640 medium was replaced by fresh culture medium containing each compound at four serial dilutions (50, 12.5, 3.125 and 0.78 μg/mL) and plates were then incubated at 37 °C and 5% CO2 during 72 h, then, cells were removed from the bottom plate with 100 µL of EDTA/trypsin (250 mg) solution. The cells were centrifuged at 1100 rpm during 10 min at 4 °C, the supernatant was discarded, and cells were washed with 1 mL of cold PBS and centrifuged at 1100 rpm for 10 min at 4 °C. Cells were washed two times employing PBS, as previously, and after the last wash, the supernatant was discarded, and cells were suspended in 500 μL of PBS.
Cells were analyzed by flow cytometry employing a flow cytometer (FC 500MPL, Cytomics, Beckman Coulter. Pasadena, CA, USA) reading at 488 nm (exciting) and 525 nm (emitting) over an argon laser and counting 10,000 events. Infected cells were determined according to the events for green fluorescence (parasites). All determinations for each compound and standard drug were carried out by triplicate, in two experiments. Infected cells exposed to control drug (amphotericin B) were used as the control for antileishmanial activity (positive control), while infected cells incubated in the absence of any compound or drug were used as another control for infection (negative control). Nonspecific fluorescence was corrected by subtracting the fluorescence of unstained cells. Determinations were done by triplicate in at least two independent experiments.
The antileishmanial activity was determined according to the reduction of the percentage of fluorescent parasites determined according to the median fluorescence intensity (MFI) obtained for each experimental condition by cytometry. The parasite values for each concentration of compound were calculated by Equation (3), where the % of parasites in control well, corresponds to 100% of parasites:(3) % Parasites=(MFI exposed parasites/MFI unexposed parasites)×100
Then, the inhibition percentage was calculated with Equation (4):(4) % Inhibitors of Parasites=100−(% Parasites)
Results of antileishmanial activities were expressed as the median effective concentrations (EC50) measured by Probit method.
In general terms: In flow cytometry, cells or beads pass a laser one at a time.

For series [2], the system named is human monocytes (U-937 ATCC CRL-1593.2). The series is described as follows: Cytotoxic activity, MTT method. Format: cell-based. Particulars: 72 h. As to the method:
(§1) Cytotoxicity of the compounds was evaluated on human monocytes (U-937 ATCC CRL-1593.2) in an exponential growth phase and adjusted at 1 × 10^5 cells/mL in RPMI-1640 enriched with 10% fetal bovine serum (FBS). One hundred microliters of cell suspension were dispensed in each well of a 96-wells microplate, and then 100 μL of 200-50-12.5 and 3.125 μg/mL concentration of each compound or standard drug (amphotericin B) were added dissolved in PBS with 0.5% DMSO. Cell exposed to compounds or standard drugs were incubated 72 h at 37 °C and 5% of CO2. Cytotoxic activity of each compound was determined according to the effect on the cell viability by the MTT microenzymatic method in which 3-(4,5-dimethylthiazol-2-yl)-2,5-diphenyltetrazolium bromide is reduced to a purple formazan product by mitochondrial enzyme succinate dehydrogenase. Thus, 10 μL/well of MTT solution (5 mg/mL) was added to each well of exposed and unexposed cells, and plates were incubated at 37 °C, 5% CO2 during 3 h. The reaction was stopped by adding 100 μL/well of isopropanol with 50% and 10% of SDS (sodium dodecyl sulfate). The concentration of formazan was determined spectrophotometrically at 570 nm (Varioskan, Thermo, Waltham, MA, USA) and intensity of color (absorbance) was registered as O.D. Cells exposed to control drug (amphotericin B) were used as control for toxicity (positive control) while cell incubated in the absence of any compound or drug were used as control for viability (negative control). Non-specific absorbance was corrected by subtracting absorbance (O.D) of the blank. Determinations were done by triplicate in at least two independent experiments.
(§2) Cytotoxicity was determined according to viability and mortality percentages obtained for each experimental condition (synthesized compounds, amphotericin B, and culture medium). Results were expressed as the mean lethal concentrations (LC50), the concentration necessary to kill 50% of cells, calculated by the parametric method of linear regression that permits doses-response analysis (Probit analysis).
(§3) Initially, viability percentages were calculated by Equation (1), where the O.D of control well, corresponds to 100% of viability:(1) % Viability=(O.D. exposed cells/O.D. unexposed cells)×100
(§4) Then, the percentage of cell growth inhibition was calculated using Equation (2):(2) % Inhibition =100−(% Viability)
(§5) The toxicity was defined according to LC50 values, using the follow scale: Toxic; LC50 < 100 μM; moderately toxic; LC50 > 100 μM and < 200 μM and potentially nontoxic; LC50 > 200 μM.
(Formazan colour is commonly taken as a measure of viable cells.)

A short description of series [3]: Cytotoxic activity, MTT method. It is filed as cell-based. Particulars: human, LC50. As to the method:
as §1, §2, §3, §4, §5

Where [4] appears, read: Leishmania panamensis, U-937, 72 h.

In general, EC50 refers to the concentration at which the effect is half-maximal. Low values mean greater potency, high ones weaker potency. As to `CCCCOC(=O)C1CC(=O)c2ccccc2S1` (stereo not drawn) [22b (+), butyl 4-oxothiochromane-2-carboxylates], in series [1], the “SI (Selectivity Index = LC50/EC50)” value amounted to 0.2 and a half-maximal response (EC50) required 368 ± 24.2 µM. Besides, the CC50 in series [2] (human) stood at 74.9 ± 52.8 µM.

For `CCCCOC(=O)C1CC(=O)c2ccccc2S1` (stereo not drawn) [22b (-), butyl 4-oxothiochromane-2-carboxylates], in series [1], the “SI (Selectivity Index = LC50/EC50)” value stood at 0.5 and the EC50 stood at 53 ± 10.8 µM. This compound registered a CC50 in series [2] (human) of 28.8 ± 4.5 µM.

Consider `COc1ccc2c(c1)SC(C(=O)O)CC2=O` (stereo not shown) [Compound 20d, 7-Methoxy-4-oxo-thiochromane-2-carboxylic acid], for which the “SI (Selectivity Index = LC50/EC50)” value in series [1] stood at 0.3. Besides, the EC50 in series [1] (setting [4]) came out at 277 ± 101 µM. The compound further displayed a CC50 at 72 h in series [3] of 90.4 ± 16.4 µM.

For the compound `N#CC1CSc2ccccc2C1=O` (stereo not shown) [Compound 9a, 4-Oxo-thiochromane-3-carbonitrile], the “SI (Selectivity Index = LC50/EC50)” value in series [1] turned out to be 7.2. Also, in series [1] (setting [4]), the EC50 stood at 108 ± 34.3 µM. The CC50 at 72 h in series [3] amounted to 770 ± 49.7 µM.

For `O=C1CC(C(=O)O)Sc2ccccc21` (stereo not drawn) [20a (-), 4-oxo-thiochroman-2-carboxylic acid], in series [1], the “SI (Selectivity Index = LC50/EC50)” value is 0.6 and the EC50 came to 53.5 ± 10.8 µM. This compound gave a CC50 in series [2] (human) of 33 ± 1.5 µM.

“4-(2-Carbamoylhydrazineylidene)thiochromane-2-carboxylic acid [Compound 26c]” showed an EC50 in series [1] greater than 189 µM. Moreover, in series [2] (U-937 cells, MTT, mean ± SD, Probit, read-out: LC50 (the source's name)), the CC50 was 1160 ± 340 µM.

Consider `O=C(C1=Cc2ccccc2SC1c1ccccc1)C(F)(F)F` (stereo not shown) [Compound 8e], for which the “SI (Selectivity Index = LC50/EC50)” value in series [1] is recorded as 0.7. Further, the EC50 in series [1] (setting [4]) was found to be 29.6 ± 6.2 µM. The CC50 at 72 h in series [3] came to 21.2 ± 3.4 µM.

Consider `CCOC(=O)C1CC(=NNC(=O)c2ccccc2)c2ccccc2S1` (stereo not shown) [Compound 26a, Ethyl 4-(2-benzoylhydrazineylidene)thiochromane-2-carboxylate], for which the “SI (Selectivity Index = LC50/EC50)” value in series [1] came out at 0.5. Further, in series [1] (setting [4]), the response was half-maximal at 28.5 ± 6.3 µM (EC50). In addition, the CC50 at 72 h in series [3] was found to be 15.4 ± 0.2 µM.

With `O=C(C1=Cc2ccccc2SC1c1ccc([N+](=O)[O-])cc1)c1ccc(Cl)cc1` (stereo not shown) [Compound 15c, (4-Chlorophenyl)(2-(4-nitrophenyl)-2H-thiochromen-3-yl)methanone], the “SI (Selectivity Index = LC50/EC50)” value in series [1] came out at 4.0. In series [1] (setting [4]), this compound registered an EC50 of 38.1 ± 11.3 µM. Further, in series [3], the CC50 at 72 h was 151 ± 18.1 µM.

Turning to `CCCCCC1Sc2ccccc2C=C1C(C)=O` (stereo not shown) [Compound 8d, 1-(2-Pentyl-2H-thiochromen-3-yl)ethan-1-one], in series [1], the “SI (Selectivity Index = LC50/EC50)” value came to 3.1. Besides, the CC50 at 72 h in series [3] is 25.7 ± 4.6 µM.

On to `CCOC(=O)C1CC(=O)c2ccccc2S1` (stereo not shown) [Compound 22a, Ethyl 4-oxo-thiochromane-2-carboxylate], for which the “SI (Selectivity Index = LC50/EC50)” value in series [1] is reported as less than 3.1. In series [1] (setting [4]), this compound had an EC50 greater than 68.5 µM. This compound also had a CC50 at 72 h in series [3] of 211.1 ± 0.7 µM.
